How the values were obtained:
[1] = biological target: Aurora kinase B (Homo sapiens) (UniProt Q96GD4); assay: Inhibition of human Aurora B at 500 nM by HotSpot assay relative to control
[2] = biological target: Tyrosine-protein kinase Blk (Homo sapiens) (UniProt P51451); assay: Inhibition of human BLK at 500 nM by HotSpot assay relative to control
[3] = biological target: T1, Tyrosine-protein kinase Mer (Homo sapiens) (UniProt Q12866); assay: Inhibition of human c-MER at 500 nM by HotSpot assay relative to control
T1 sequence (whole entry): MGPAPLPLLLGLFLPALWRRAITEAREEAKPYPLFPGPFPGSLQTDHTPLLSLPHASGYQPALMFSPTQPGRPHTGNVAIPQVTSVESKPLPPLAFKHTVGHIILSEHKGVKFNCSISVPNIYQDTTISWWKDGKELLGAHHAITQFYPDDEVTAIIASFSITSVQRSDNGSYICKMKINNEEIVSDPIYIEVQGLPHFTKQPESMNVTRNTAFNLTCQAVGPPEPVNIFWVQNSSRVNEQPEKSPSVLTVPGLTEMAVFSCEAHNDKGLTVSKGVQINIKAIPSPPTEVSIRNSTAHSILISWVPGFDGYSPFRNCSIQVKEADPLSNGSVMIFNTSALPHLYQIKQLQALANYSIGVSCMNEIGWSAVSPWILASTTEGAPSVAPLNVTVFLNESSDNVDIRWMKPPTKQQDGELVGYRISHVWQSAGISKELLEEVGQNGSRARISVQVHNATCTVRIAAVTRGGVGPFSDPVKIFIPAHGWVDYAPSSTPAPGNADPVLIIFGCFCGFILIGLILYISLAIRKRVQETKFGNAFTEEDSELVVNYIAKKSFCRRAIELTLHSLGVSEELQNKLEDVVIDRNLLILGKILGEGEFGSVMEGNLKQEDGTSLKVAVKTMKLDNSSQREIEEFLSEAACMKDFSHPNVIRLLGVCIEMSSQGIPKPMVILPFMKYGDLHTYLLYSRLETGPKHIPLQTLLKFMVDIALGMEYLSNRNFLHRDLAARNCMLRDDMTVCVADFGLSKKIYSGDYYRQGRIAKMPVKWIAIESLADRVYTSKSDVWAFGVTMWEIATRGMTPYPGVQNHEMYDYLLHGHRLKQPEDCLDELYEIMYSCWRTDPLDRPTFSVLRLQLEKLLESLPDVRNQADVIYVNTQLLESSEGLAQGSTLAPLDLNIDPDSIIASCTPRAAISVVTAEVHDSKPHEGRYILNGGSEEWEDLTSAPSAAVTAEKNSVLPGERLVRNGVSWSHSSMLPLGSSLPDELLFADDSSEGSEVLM

[4] = biological target: G protein-coupled receptor kinase 4 (Homo sapiens) (UniProt P32298); assay: Inhibition of human GRK4 at 500 nM by HotSpot assay relative to control
[5] = biological target: Insulin receptor (Homo sapiens) (UniProt P06213); assay: Inhibition of human IR at 500 nM by HotSpot assay relative to control
[6] = biological target: Insulin receptor-related protein (Homo sapiens) (UniProt P14616); assay: Inhibition of human IRR at 500 nM by HotSpot assay relative to control
[7] = biological target: MAP kinase-activated protein kinase 3 (Homo sapiens) (UniProt Q16644); assay: Inhibition of human MAPKAPK3 at 500 nM by HotSpot assay relative to control
[8] = biological target: Serine/threonine-protein kinase MARK2 (Homo sapiens) (UniProt Q7KZI7); assay: Inhibition of human PAR-1Ba at 500 nM by HotSpot assay relative to control
[9] = biological target: T2, Mitogen-activated protein kinase kinase kinase 3 (Homo sapiens) (UniProt Q99759); assay: Inhibition of human MEKK3 at 500 nM by HotSpot assay relative to control
T2 sequence (whole entry): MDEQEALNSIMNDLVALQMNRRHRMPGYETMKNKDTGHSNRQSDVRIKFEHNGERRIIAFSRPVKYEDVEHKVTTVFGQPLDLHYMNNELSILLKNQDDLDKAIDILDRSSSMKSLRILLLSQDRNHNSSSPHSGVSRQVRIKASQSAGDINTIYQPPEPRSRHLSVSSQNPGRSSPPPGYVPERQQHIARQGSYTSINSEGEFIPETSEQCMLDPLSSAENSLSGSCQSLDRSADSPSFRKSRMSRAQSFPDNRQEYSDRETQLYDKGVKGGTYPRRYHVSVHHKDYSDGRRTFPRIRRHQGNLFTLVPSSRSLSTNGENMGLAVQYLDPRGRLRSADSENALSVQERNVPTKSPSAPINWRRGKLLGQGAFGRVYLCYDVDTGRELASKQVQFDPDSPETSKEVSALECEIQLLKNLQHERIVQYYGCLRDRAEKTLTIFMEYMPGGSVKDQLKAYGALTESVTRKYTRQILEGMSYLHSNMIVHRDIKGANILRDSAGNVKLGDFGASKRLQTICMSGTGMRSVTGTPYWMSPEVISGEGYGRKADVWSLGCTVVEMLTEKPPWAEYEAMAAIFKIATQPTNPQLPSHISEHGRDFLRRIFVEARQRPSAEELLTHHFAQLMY

[10] = biological target: Mitogen-activated protein kinase kinase kinase 9 (Homo sapiens) (UniProt P80192); assay: Inhibition of human MAP3K9 at 500 nM by HotSpot assay relative to control
[11] = biological target: Ribosomal protein S6 kinase alpha-5 (Homo sapiens) (UniProt O75582); assay: Inhibition of human RPS6KA5 at 500 nM by HotSpot assay relative to control
[12] = biological target: SRSF protein kinase 3 (Homo sapiens) (UniProt Q9UPE1); assay: Inhibition of human STK23 at 500 nM by HotSpot assay relative to control
[13] = biological target: T3, Lymphokine-activated killer T-cell-originated protein kinase (Homo sapiens) (UniProt Q96KB5); assay: Inhibition of human TOPK at 500 nM by HotSpot assay relative to control
T3 sequence (whole entry): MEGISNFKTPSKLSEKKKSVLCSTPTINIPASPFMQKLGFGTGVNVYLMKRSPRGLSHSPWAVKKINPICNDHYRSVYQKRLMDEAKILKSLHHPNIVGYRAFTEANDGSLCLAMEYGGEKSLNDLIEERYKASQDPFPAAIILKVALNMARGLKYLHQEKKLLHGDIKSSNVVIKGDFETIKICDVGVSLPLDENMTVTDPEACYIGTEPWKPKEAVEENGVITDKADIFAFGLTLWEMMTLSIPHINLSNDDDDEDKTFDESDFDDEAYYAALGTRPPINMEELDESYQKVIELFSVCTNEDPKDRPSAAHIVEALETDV

[14] = biological target: Protein kinase C theta type (Homo sapiens) (UniProt Q04759); assay: Inhibition of human PKCtheta at 500 nM by HotSpot assay relative to control
[15] = biological target: NT-3 growth factor receptor (Homo sapiens) (UniProt Q16288); assay: Inhibition of human TRKC at 500 nM by HotSpot assay relative to control
[16] = biological target: Serine/threonine-protein kinase WNK3 (Homo sapiens) (UniProt Q9BYP7); assay: Inhibition of human WNK3 at 500 nM by HotSpot assay relative to control
Serine/threonine-protein kinase WNK3 (Homo sapiens), sequence (Q9BYP7 whole entry): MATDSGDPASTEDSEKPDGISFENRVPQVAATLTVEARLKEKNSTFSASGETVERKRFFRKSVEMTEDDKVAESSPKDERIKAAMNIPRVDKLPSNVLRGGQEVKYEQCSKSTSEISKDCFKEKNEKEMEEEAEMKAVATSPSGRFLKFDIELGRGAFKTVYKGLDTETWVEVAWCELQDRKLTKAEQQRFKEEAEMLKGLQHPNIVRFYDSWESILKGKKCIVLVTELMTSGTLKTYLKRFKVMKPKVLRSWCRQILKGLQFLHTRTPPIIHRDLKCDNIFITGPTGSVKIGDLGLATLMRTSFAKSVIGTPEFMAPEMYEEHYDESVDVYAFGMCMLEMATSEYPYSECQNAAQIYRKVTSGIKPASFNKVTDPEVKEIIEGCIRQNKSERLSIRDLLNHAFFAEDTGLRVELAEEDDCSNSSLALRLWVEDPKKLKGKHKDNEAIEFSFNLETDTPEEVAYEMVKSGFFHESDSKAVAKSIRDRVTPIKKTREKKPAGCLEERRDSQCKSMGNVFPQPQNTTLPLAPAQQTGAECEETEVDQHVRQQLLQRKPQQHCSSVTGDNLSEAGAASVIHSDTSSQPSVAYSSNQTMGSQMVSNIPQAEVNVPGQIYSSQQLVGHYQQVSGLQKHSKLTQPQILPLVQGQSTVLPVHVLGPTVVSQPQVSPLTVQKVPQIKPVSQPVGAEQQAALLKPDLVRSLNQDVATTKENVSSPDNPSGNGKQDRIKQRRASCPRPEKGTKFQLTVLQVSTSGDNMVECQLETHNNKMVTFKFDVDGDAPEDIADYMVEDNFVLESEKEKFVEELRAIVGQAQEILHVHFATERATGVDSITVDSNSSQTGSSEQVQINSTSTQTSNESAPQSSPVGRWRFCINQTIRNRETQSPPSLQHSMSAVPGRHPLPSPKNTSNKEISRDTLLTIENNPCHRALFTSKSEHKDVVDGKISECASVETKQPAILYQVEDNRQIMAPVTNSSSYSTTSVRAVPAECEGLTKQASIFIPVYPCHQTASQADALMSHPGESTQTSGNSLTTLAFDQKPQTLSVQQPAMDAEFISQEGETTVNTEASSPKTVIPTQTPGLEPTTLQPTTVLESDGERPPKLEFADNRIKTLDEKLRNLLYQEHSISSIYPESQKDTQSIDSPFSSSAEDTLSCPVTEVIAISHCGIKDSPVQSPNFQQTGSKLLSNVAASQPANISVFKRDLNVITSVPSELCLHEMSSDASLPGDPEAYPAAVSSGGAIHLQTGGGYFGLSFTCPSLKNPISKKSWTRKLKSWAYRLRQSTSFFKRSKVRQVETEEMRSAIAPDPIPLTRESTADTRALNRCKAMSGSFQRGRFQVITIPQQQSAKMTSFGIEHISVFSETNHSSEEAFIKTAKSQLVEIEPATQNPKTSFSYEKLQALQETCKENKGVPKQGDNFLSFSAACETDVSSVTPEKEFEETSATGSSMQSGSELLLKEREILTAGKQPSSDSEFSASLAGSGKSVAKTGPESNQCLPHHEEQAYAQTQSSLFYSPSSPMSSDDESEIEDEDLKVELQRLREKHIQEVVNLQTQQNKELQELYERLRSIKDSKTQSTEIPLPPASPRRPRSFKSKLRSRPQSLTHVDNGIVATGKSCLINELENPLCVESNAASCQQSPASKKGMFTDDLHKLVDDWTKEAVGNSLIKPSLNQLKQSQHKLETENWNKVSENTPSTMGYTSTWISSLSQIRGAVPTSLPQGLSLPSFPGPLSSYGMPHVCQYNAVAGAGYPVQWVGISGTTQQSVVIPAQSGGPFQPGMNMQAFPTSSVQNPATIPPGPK

NT-3 growth factor receptor (Homo sapiens), sequence (Q16288 32-839 limits assumed): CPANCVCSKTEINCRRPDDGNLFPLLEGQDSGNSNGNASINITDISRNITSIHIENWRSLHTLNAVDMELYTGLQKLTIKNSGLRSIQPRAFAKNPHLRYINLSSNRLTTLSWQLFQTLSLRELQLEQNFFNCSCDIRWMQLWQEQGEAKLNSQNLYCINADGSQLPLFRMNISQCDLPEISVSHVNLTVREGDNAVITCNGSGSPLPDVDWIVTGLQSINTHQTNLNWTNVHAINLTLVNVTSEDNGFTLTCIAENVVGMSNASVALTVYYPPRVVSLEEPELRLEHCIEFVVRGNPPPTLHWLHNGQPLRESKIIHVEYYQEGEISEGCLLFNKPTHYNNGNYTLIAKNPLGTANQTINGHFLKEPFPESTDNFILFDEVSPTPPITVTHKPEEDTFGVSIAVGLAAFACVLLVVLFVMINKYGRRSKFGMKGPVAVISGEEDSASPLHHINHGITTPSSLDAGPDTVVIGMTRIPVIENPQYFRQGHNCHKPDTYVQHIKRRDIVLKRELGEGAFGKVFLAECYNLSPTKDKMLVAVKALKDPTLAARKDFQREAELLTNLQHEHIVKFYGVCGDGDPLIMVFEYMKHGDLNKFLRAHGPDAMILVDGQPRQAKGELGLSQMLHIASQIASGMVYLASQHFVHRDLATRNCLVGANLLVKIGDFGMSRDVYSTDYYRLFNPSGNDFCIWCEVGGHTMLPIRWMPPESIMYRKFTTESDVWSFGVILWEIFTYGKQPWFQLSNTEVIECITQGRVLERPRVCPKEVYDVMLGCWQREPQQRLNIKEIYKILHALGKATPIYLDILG
Insulin receptor (Homo sapiens), sequence (P06213 28-758 limits assumed): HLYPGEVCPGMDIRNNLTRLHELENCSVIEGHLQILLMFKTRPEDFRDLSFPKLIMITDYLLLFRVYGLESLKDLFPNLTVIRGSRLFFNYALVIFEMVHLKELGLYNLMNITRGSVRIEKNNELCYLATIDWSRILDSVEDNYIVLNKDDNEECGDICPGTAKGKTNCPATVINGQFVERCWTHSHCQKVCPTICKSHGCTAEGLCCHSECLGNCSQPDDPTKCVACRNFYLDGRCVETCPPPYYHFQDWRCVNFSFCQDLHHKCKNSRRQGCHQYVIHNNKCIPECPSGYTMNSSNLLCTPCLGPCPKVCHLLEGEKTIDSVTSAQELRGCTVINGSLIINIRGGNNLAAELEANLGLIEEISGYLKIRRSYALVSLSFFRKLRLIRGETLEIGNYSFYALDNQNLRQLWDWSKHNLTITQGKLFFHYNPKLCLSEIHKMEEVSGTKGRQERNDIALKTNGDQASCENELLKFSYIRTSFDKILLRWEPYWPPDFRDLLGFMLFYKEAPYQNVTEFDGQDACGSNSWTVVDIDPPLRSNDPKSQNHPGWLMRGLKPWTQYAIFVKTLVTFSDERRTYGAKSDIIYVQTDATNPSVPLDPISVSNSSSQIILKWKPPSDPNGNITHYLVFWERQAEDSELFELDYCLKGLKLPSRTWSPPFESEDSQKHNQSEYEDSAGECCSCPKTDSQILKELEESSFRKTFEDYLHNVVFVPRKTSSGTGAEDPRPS
Insulin receptor (Homo sapiens), sequence (P06213 763-1382 limits assumed): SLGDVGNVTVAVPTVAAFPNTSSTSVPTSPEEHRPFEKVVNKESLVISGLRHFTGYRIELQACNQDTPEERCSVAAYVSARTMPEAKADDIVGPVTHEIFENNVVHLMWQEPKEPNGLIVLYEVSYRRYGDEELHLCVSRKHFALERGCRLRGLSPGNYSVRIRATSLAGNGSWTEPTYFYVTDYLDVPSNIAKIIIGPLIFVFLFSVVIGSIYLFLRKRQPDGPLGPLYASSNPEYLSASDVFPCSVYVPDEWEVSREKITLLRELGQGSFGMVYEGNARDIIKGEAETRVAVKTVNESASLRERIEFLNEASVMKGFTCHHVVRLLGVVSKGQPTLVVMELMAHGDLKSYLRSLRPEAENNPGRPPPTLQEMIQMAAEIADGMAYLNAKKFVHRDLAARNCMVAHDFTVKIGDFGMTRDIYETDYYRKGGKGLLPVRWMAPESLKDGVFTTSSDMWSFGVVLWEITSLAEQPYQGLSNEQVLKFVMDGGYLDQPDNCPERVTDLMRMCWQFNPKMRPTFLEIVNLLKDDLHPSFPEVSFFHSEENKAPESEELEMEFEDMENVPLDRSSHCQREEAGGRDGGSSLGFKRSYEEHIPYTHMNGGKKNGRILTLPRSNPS
Mitogen-activated protein kinase kinase kinase 9 (Homo sapiens), sequence (P80192 whole entry, looked up): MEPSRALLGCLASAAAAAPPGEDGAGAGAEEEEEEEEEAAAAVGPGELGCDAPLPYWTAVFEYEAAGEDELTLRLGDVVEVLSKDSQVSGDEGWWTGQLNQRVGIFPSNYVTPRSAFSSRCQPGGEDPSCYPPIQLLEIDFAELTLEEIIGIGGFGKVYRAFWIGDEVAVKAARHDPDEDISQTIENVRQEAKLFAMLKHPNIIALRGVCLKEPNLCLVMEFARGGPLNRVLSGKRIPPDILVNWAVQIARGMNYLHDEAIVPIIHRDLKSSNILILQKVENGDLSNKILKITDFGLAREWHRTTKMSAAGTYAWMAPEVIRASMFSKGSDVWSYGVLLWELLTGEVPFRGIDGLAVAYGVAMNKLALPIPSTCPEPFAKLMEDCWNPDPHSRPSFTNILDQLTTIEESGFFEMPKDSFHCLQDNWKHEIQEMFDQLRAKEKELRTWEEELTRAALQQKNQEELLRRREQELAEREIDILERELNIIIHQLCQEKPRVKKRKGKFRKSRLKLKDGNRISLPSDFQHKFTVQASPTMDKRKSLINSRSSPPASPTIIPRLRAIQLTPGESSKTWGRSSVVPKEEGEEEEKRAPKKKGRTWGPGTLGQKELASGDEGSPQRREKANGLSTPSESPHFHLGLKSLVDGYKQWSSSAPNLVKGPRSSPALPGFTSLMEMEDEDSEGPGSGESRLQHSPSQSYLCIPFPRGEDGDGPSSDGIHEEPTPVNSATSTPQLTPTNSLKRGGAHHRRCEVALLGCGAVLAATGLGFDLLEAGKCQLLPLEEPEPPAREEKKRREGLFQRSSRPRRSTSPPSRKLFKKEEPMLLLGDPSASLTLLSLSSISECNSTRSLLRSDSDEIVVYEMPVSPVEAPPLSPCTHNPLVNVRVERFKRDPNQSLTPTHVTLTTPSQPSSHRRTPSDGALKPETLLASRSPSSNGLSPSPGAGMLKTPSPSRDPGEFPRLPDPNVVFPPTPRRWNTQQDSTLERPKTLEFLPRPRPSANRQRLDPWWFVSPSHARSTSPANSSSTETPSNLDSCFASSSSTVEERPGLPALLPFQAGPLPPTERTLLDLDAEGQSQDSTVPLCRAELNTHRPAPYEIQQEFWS

Row | SMILES | inhibition [1] [%] | inhibition [2] [%] | inhibition [3] [%] | inhibition [4] [%] | inhibition [5] [%] | inhibition [6] [%] | inhibition [7] [%] | inhibition [8] [%] | inhibition [9] [%] | inhibition [10] [%] | inhibition [11] [%] | inhibition [12] [%] | inhibition [13] [%] | inhibition [14] [%] | inhibition [15] [%] | inhibition [16] [%]
1 | Oc1n[nH]c2nnc(-c3c(-c4ccccc4)nn4ccccc34)cc12 | 2.45 | 2.09 | 2 | -1.17 | 72.6 | 13.8 | -0.14 | -4.11 | -4.26 | -2.83 | -5.1 | 0.76 | -8.9 | 8.59 | 2.25 | 0.29
2 | Nc1n[nH]c2nnc(-c3c(-c4ccccc4)nn4ccccc34)cc12 | 3.24 | 1.92 | 23.6 | -2.71 | 21.7 | 4.29 | -2.71 | -4.05 | -9.53 | 0.07 | -1.32 | 11.2 | 4.99 | 20.1 | 23.4 | -1.28
